Results from patent US8372869B2, “Process for the treatment of bacterial infections using 2-phenyl-1,2-benzisoselenazol-3(2H)-one 1-oxide” (priority 2008, dated 2013).
pIC50: −log10 of the molar value. Entries after “also recorded” stand apart in the source; their conditions may differ.

What was measured:
[1] = tested on: S. aureus strain ATCC 33592 (resistant to methicillin); test: Broth microdilution susceptibility testing, methicillin-resistant S. aureus; type: cell-based, Staphylococcus aureus; conditions: strain ATCC 33592, Mueller Hinton Broth, 24 (±4) hr, 35-37° C., 3.125-25 μM tested
Description: (§1) A Gram-negative Escherichia coli strain, DH5(alpha), was purchased from Invitrogen (Cat #18265-017; Carlsbad, Calif.) and a Gram-positive Staphylococcus aureus strain, positive for catalase and coagulase, was purchased from Ward's Natural Science (Cat #85V1178; Rochester, N.Y.). S. aureus strain ATCC 33592 is a clinical isolate which is resistant to methicillin and which was obtained from the American Type Culture Collection (Manassas, Va.). S. aureus strain NARSA VRS 1 is a clinical isolate which is resistant to both methicillin and vancomycin and which was obtained from Focus Technologies, Inc. (Herndon, Va.). These bacterial strains were used to test the antibacterial activity of ebselen se-oxide. To prepare ebselen se-oxide, an adequate amount of said compound was dissolved in 0.5 mL of dimethylsulfoxide (DMSO) to give a 30.0 mM stock solution.
(§2) Note that all susceptibility assays were performed in triplicate wells using sterile flat-bottom 96-well microtiter plates. […] After 24 (±4) hr of incubation at 35-37° C., the MIC (minimum inhibitory concentration) for ebselen se-oxide was determined for each strain visually by comparing the turbidity of the triplicate treatments to that observed for drug-free growth control wells. […]

[2] = tested on: A-431 human skin cells; test: MTT viability assay in human skin cells; type: cell-based; conditions: 12.5, 25 or 50 μM, 24 hr, 37° C., serum-free DMEM
Description: Cells were then incubated for 24 hr at 37° C. After incubation, the MTT viability assay was performed. This assay measures the conversion of 3-[4,5-dimethylthiazol-2-yl]-2,5-diphenyl tetrazolium bromide (MTT) into a colored product in living cells. The optical density of this purple formazan product in the cell culture medium was then measured spectrophotometrically at 570 nm and cell viability was determined as described by Mosmann (15).
The MTT assay was used to determine cell viability and the LC50 value for ebselen se-oxide in these cells was evaluated.

[3] = tested on: S. aureus strain NARSA VRS1 (resistant to both methicillin and vancomycin); test: Broth microdilution susceptibility testing, methicillin- and vancomycin-resistant S. aureus; type: cell-based, Staphylococcus aureus; conditions: strain NARSA VRS1, Mueller Hinton Broth, 24 (±4) hr, 35-37° C., 3.125-25 μM tested
Description: as §1, §2

[4] = tested on: Staphylococcus aureus strain, positive for catalase and coagulase (Gram-positive); test: Bacterial growth inhibition by light-scattering at 550 nm, Staphylococcus aureus; type: cell-based; conditions: read-out: IC50, concentration required to inhibit the growth of Staphylococcus aureus to 50% of the untreated control
Description: as §1
(§3) Luria Broth (LB) was used to for the culturing of both bacterial strains. […]
(§4) Bacterial growth, in the absence or presence of ebselen se-oxide, was assessed by light-scattering at 550 nm. In separate experiments, bacterial cells of either the Staphylococcus aureus or the Escherichia coli strain were inoculated into polypropylene tubes containing 5 mL of LB medium to obtain an initial optical density at 550 nm (OD550) of ˜0.005, as determined using a spectrophotometer (UV 160U, Shimadzu Corp., Kyoto, Japan). […]

[5] = tested on: Escherichia coli strain DH5(alpha) (Gram-negative); test: Bacterial growth inhibition by light-scattering at 550 nm, Escherichia coli; type: cell-based; conditions: read-out: IC50 towards Escherichia coli cells (growth inhibition)
Description: as §1, §3, §4

Structure (SMILES)	MIC (lowest concentration showing 100% growth inhibition in all three wells) [1]	Cytotoxic effect on viability of A-431 human skin cells (MTT) [2]	MIC (lowest concentration showing 100% growth inhibition in all three wells) [3]	pIC50 [4]	pIC50 [5]
O=C1c2ccccc2[Se](=O)N1c1ccccc1 (stereo not drawn) [ebselen se-oxide, 2-phenyl-1,2-benzisoselenazol-3(2H)-one 1-oxide]	low micromolar range	neither compound was toxic; also recorded: no toxicity	low micromolar range	~6.22	~4.77
O=c1c2ccccc2[se]n1-c1ccccc1 [ebselen, 2-phenyl-1,2-benzoisoselenazol-3(2H)-one, reference compound]	–	neither compound was toxic	–	–	–
